Assay results: ChEMBL document CHEMBL1201862, “PubChem BioAssay data set” (2004)
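Tested at 5 concentrations; 48 h exposure; 96-well plates; endpoints linearly interpolated, else capped at highest concentration. The concentration for 50% growth inhibition is given as GI50.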 Calls of active or inactive are those of the source. Rule as the data show it: active = GI50 up to about 1.1 µM and inactive = higher.

Legend:
Experiment in all cases: DTP human tumour cell line panel, 48 h
786-0 = tested on: 786-0
A498 = tested on: A498
A549 = tested on: A549
ACHN = tested on: ACHN
BT-549 = tested on: BT-549
CAKI-1 = tested on: CAKI-1
CCRF-CEM = tested on: CCRF-CEM
COLO 205 = tested on: COLO 205
DLD-1 = tested on: DLD-1
DMS-114 = tested on: DMS-114
DMS-273 = tested on: DMS-273
DU-145 = tested on: DU-145
EKVX = tested on: EKVX
HCC 2998 = tested on: HCC 2998
HCT-116 = tested on: HCT-116
HCT-15 = tested on: HCT-15
HL-60 = tested on: HL-60
HOP-62 = tested on: HOP-62
HOP-92 = tested on: HOP-92
HT-29 = tested on: HT-29
Hs-578T = tested on: Hs-578T
IGROV-1 = tested on: IGROV-1
K562 = tested on: K562
KM-20L2 = tested on: KM-20L2
KM12 = tested on: KM12
LOX IMVI = tested on: LOX IMVI
LXFL 529 = tested on: LXFL 529
M14 = tested on: M14
M19-MEL = tested on: M19-MEL
MCF7 = tested on: MCF7
MDA-MB-231 = tested on: MDA-MB-231
MDA-MB-435 = tested on: MDA-MB-435
MDA-N = tested on: MDA-N
MOLT-4 = tested on: MOLT-4
Malme-3M = tested on: Malme-3M
NCI-H226 = tested on: NCI-H226
NCI-H23 = tested on: NCI-H23
NCI-H460 = tested on: NCI-H460
NCI-H522 = tested on: NCI-H522
NCI/ADR-RES = tested on: NCI/ADR-RES
OVCAR-3 = tested on: OVCAR-3
OVCAR-4 = tested on: OVCAR-4
OVCAR-5 = tested on: OVCAR-5
OVCAR-8 = tested on: OVCAR-8
PC-3 = tested on: PC-3
RPMI-8226 = tested on: RPMI-8226
RXF 393 = tested on: RXF 393
RXF 631 = tested on: RXF 631
SF-268 = tested on: SF-268
SF-295 = tested on: SF-295
SF-539 = tested on: SF-539
SK-MEL-28 = tested on: SK-MEL-28
SK-MEL-2 = tested on: SK-MEL-2
SK-MEL-5 = tested on: SK-MEL-5
SK-OV-3 = tested on: SK-OV-3
SN12C = tested on: SN12C
SNB-19 = tested on: SNB-19
SNB-75 = tested on: SNB-75
SR = tested on: SR
SW-620 = tested on: SW-620
T47D = tested on: T47D
TK-10 = tested on: TK-10
U-251 = tested on: U-251
UACC-257 = tested on: UACC-257
UACC-62 = tested on: UACC-62
UO-31 = tested on: UO-31
XF498 = tested on: XF498

## COc1ccc(Cc2cc(OC)c(OC)c(OC)c2)cc1O
786-0
  GI50: 0.116 µM (active)
A498
  GI50: 25.2 µM (inactive)
A549
  GI50: 0.119 µM (active)
ACHN
  GI50: 0.167 µM (active)
BT-549
  GI50: < 0.01 µM (active)
CAKI-1
  GI50: > 24.7 µM (inactive)
CCRF-CEM
  GI50: 0.0177 µM (active)
COLO 205
  GI50: > 40.2 µM (inactive)
DLD-1
  GI50: 0.207 µM (active)
DMS-114
  GI50: 0.127 µM (active)
DMS-273
  GI50: 0.0713 µM (active)
DU-145
  GI50: 0.0231 µM (active)
EKVX
  GI50: 24.7 µM (inactive)
HCC 2998
  GI50: 2.41 µM (inactive)
HCT-116
  GI50: 0.064 µM (active)
HCT-15
  GI50: 0.019 µM
HL-60
  GI50: 0.0235 µM (active)
HOP-62
  GI50: 0.109 µM (active)
HOP-92
  GI50: 0.119 µM (active)
HT-29
  GI50: 14.3 µM (inactive)
Hs-578T
  GI50: 0.0137 µM (active)
IGROV-1
  GI50: 3.78 µM (inactive)
K562
  GI50: 0.0161 µM (active)
KM-20L2
  GI50: 51.6 µM (inactive)
KM12
  GI50: 0.0193 µM (active)
LOX IMVI
  GI50: 0.0547 µM (active)
LXFL 529
  GI50: 0.82 µM (active)
M14
  GI50: 0.0255 µM (active)
M19-MEL
  GI50: 0.0861 µM (active)
MCF7
  GI50: 0.0244 µM (active)
MDA-MB-231
  GI50: 0.0122 µM (active)
MDA-MB-435
  GI50: < 0.01 µM (active)
MDA-N
  GI50: < 0.01 µM (active)
MOLT-4
  GI50: 0.0211 µM (active)
Malme-3M
  GI50: 0.0389 µM (active)
NCI-H226
  GI50: 36.7 µM (inactive)
NCI-H23
  GI50: 0.101 µM (active)
NCI-H460
  GI50: 0.0841 µM (active)
NCI-H522
  GI50: 0.12 µM (active)
NCI/ADR-RES
  GI50: < 0.01 µM (active)
OVCAR-3
  GI50: 0.0365 µM (active)
OVCAR-4
  GI50: 42.5 µM (inactive)
OVCAR-5
  GI50: 68.1 µM (inactive)
OVCAR-8
  GI50: 0.0769 µM (active)
PC-3
  GI50: < 0.0171 µM (active)
RPMI-8226
  GI50: < 0.021 µM (active)
RXF 393
  GI50: 0.181 µM (active)
RXF 631
  GI50: 25.2 µM (inactive)
SF-268
  GI50: 0.122 µM (active)
SF-295
  GI50: 0.286 µM (active)
SF-539
  GI50: 0.0334 µM (active)
SK-MEL-28
  GI50: < 0.0169 µM (active)
SK-MEL-2
  GI50: 0.0702 µM (active)
SK-MEL-5
  GI50: 0.0215 µM (active)
SK-OV-3
  GI50: 0.274 µM (active)
SN12C
  GI50: 0.173 µM (active)
SNB-19
  GI50: 0.0352 µM (active)
SNB-75
  GI50: < 0.01 µM (active)
SR
  GI50: 0.0194 µM (active)
SW-620
  GI50: < 0.01 µM (active)
T47D
  GI50: 53.8 µM (inactive)
TK-10
  GI50: > 90.4 µM (inactive)
U-251
  GI50: 0.0982 µM (active)
UACC-257
  GI50: 3.95 µM (inactive)
UACC-62
  GI50: 0.457 µM (active)
UO-31
  GI50: 1.03 µM (active)
XF498
  GI50: 4.73 µM (inactive)

## COC(=O)N1C=Cc2c(c(C)c3c([nH]c4ccccc43)c2C)C1C (centres undefined)
786-0
  GI50: 13.2 µM (inactive)
A498
  GI50: 14.1 µM (inactive)
A549
  GI50: 18 µM (inactive)
ACHN
  GI50: > 10 µM (inactive)
CAKI-1
  GI50: 18.1 µM (inactive)
CCRF-CEM
  GI50: 14.8 µM (inactive)
COLO 205
  GI50: 18.7 µM (inactive)
DLD-1
  GI50: 14.8 µM (inactive)
DMS-114
  GI50: 19.4 µM (inactive)
DMS-273
  GI50: 18 µM (inactive)
EKVX
  GI50: 14 µM (inactive)
HCC 2998
  GI50: 16.8 µM (inactive)
HCT-116
  GI50: 12.9 µM (inactive)
HCT-15
  GI50: 10.6 µM
HL-60
  GI50: 19.2 µM (inactive)
HOP-62
  GI50: 18.2 µM (inactive)
HOP-92
  GI50: 20.1 µM (inactive)
HT-29
  GI50: 11.3 µM (inactive)
IGROV-1
  GI50: 25.2 µM (inactive)
K562
  GI50: 6.19 µM (inactive)
KM-20L2
  GI50: 12.2 µM (inactive)
LOX IMVI
  GI50: 16.4 µM (inactive)
LXFL 529
  GI50: 22.2 µM (inactive)
M14
  GI50: 29.6 µM (inactive)
M19-MEL
  GI50: 20.8 µM (inactive)
MOLT-4
  GI50: 5.97 µM (inactive)
Malme-3M
  GI50: 18.1 µM (inactive)
NCI-H226
  GI50: 17.6 µM (inactive)
NCI-H23
  GI50: 17.7 µM (inactive)
NCI-H460
  GI50: 22.5 µM (inactive)
OVCAR-3
  GI50: 16.3 µM (inactive)
OVCAR-4
  GI50: 12.3 µM (inactive)
OVCAR-5
  GI50: 17.2 µM (inactive)
OVCAR-8
  GI50: 18.3 µM (inactive)
RPMI-8226
  GI50: 7.62 µM (inactive)
RXF 631
  GI50: 16.4 µM (inactive)
SF-268
  GI50: 18.2 µM (inactive)
SF-295
  GI50: 13.7 µM (inactive)
SF-539
  GI50: 17.1 µM (inactive)
SK-MEL-28
  GI50: 15.5 µM (inactive)
SK-MEL-2
  GI50: 18.3 µM (inactive)
SK-MEL-5
  GI50: 15.3 µM (inactive)
SK-OV-3
  GI50: 27.4 µM (inactive)
SNB-19
  GI50: 18 µM (inactive)
SNB-75
  GI50: 15.3 µM (inactive)
SW-620
  GI50: 17.7 µM (inactive)
TK-10
  GI50: 19.6 µM (inactive)
U-251
  GI50: 16 µM (inactive)
UACC-257
  GI50: 17.3 µM (inactive)
UACC-62
  GI50: 18 µM (inactive)
UO-31
  GI50: 18.5 µM (inactive)
XF498
  GI50: 17.7 µM (inactive)
